In US20130059787A1, “METHODS OF USING HUMAN PROTEIN KINASE C DELTA VIII AS A BIOMARKER” (UNITED STATES DEPARTMENT OF VETERAN AFFAIRS, priority 2010, published 2013):

How the values were obtained:
Type in all cases: cell-based
[1] = test system: PKCδVIII; assay: RT-PCR with human PKCδ primers in primary neuronal cells from hippocampus; conditions: RA about 24 h
Experimental: FIG. 2 is a series of images indicating the expression of PKCδVIII. (a) an image showing that both PKCδI and PKCδVIII were detected and the levels of PKCδVIII increased with retinoic acid treatment. Primary neuronal cells from hippocampus were treated with RA for about 24 h. Total RNA was extracted and RT-PCR performed with primers described in FIG. 1 which detect both PKCδI and PKCδVIII simultaneously. (b) an image showing that the expression of PKCδVIII is tissue-specific with the highest levels seen in the fetal brain. Human fetal tissue specific cdNAs were used in PCR analysis using PKCδVIII-specific primers. (i) Liver (ii) kidney (iii) heart (iv) spleen (v) brain. About five percent products were separated on PAGE and detected by silver nitrate staining […]
Using PKCδ primers, PKCδI and PKCδVIII are detected simultaneously: PKCδI is 368 bp and PKCδVIII is 461 bp. […] About 5% of products were resolved on 6% PAGE gels and detected by silver staining. The PCR reaction was optimized for linear range amplification to allow for quantification of products. […]
The inventors looked for the expression of PKCδ isozymes in primary neuronal cells to verify the expression pattern of PKCδVIII. […] PKCδI and PKCδVIII isoforms were detected and the levels of PKCδVIII increased with retinoic acid treatment (FIG. 2a). PKCδVIII was not detected in aorta smooth muscle cells or skeletal muscle cells (data not shown). […]

[2] = test system: PKCδI mRNA; assay: Quantitative real-time RT-PCR (SYBR Green) in primary human neuronal cells from hippocampus; conditions: RA about 10 μM, about 24 h
Source text: (§1) FIG. 1 is a series of images illustrating the alternative splice site in human PKC δ. (a) schematic of alternative 5′ splice site selection in human PKCδ pre-mRNA exon 10 that results in the generation of PKCδI mRNA and PKCδVIII mRNA, which differ by about 93 bp in the V3 hinge region. RA promotes expression of PKCδVIII mRNA. SSI: 5′ splice site I; SSII: 5′ splice site II. (b) schematic of the primers specific for PKC δI and PKC δVIII used in real time RT-PCR such that they span the exon-exon boundaries. (c) primary human neuronal cells from hippocampus were treated with or without RA (about 10 μM) for about 24 h. […]
(§2) cDNA (about 2 μl) was amplified by real-time quantitative PCR using Syber (SYBR) Green with an ABI PRISM 7900 sequence detection system (PE Applied Biosystems, Foster City, Calif.) as described previously to quantify absolute levels of PKCδI and PKCδVIII mRNA in the samples (Jiang, K., Apostolatos, A. H., Ghansah, T., Watson, J. E., Vickers, T., Cooper, D. R., Epling-Burnette, P. K., and Patel, N. A. (2008) Biochemistry 47, 787-797). […]
(§3) sense primer 5′-[…]-3′(SEQ ID No: 6) and antisense primer 5′-[…]-3′ (SEQ ID No: 7). […] Absolute quantification of mRNA expression levels for PKCδI and PKCδVIII was calculated by normalizing the values to GAPDH. The results were analyzed with two-tailed Student's t test using PRISM4 statistical analysis software (GraphPad, San Diego, Calif.). […]

[3] = test system: PKCδVIII mRNA; assay: as above; conditions: RA about 10 μM, about 24 h
Source text: as §1, §2, §3

CC1=C(/C=C/C(C)=C/C=C/C(C)=C/C(=O)O)C(C)(C)CCC1 [RA, all-trans-retinoic acid]
levels of PKCδVIII (RT-PCR) [1]: increased | absolute mRNA expression of PKCδI normalized to GAPDH [2]: remain constant | absolute mRNA expression of PKCδVIII normalized to GAPDH [3]: increased
